Test results taken from patent US20240246960A1 (adMare Therapeutics Society, priority 2021, published 2024).
Read-outs that look alike come from different tables or passages of the source.

What was measured:
[1] = molecular target: T1, DNA-PK phosphorylation at Serine 2056 (Homo sapiens, UniProt P78527); assay: Cellular Assay for Inhibition of DNA-PK Phosphorylation at Serine 2056 (FaDu cells, neocarzinostatin, sandwich ELISA); type: cell-based
T1 construct: host or cells: FaDu
Method in brief: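 Readout was pSer2056 and total DNA-PK, measured by sandwich ELISA on protein-normalized lysates. Prior to lysis, compound was applied to FaDu cells for 1 h (0.3% DMSO), followed by 2 h of 1 μg/mL neocarzinostatin. IC50 values were fitted from log concentration versus % inhibition normalized to DMSO and NCS controls.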

[2] = Microsomal stability assay, mouse liver microsomes; conditions: for microsomal CLint at 0.1 uM: male, CD-1, mouse, liver microsomes, pH 7.4, Microsomal Stability Mouse Clint
DNA-PK = molecular target: T2, DNA-PK (Homo sapiens, UniProt P78527); assay: DNA-PK Assay for Biochemical Enzymatic Inhibition (ADP Glo Kinase assay)
T2 construct: purchased Invitrogen PR9107A
Method in brief: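 Human DNA-PK (25 ng) preincubated 15 min with compounds (ten three-fold dilutions) in HEPES pH 7.5, MgCl2, KCl, calf thymus DNA buffer, then substrate 434.4 μM and ATP 64.4 μM (final) for 60 min at room temperature. ADP-Glo luminescence; percent inhibition fitted by four-parameter regression for IC50.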

[3] = Microsomal stability assay, human liver microsomes; type: in vitro ADME; conditions: for microsomal CLint at 0.1 uM: both sexes, human, liver microsomes
Protocol: Samples were then mixed and centrifuged. Supernatants were used for HPLC-MS/MS analysis. […] Peak areas corresponding to the test compound were recorded.

[4] = molecular target: T3, pDNA-PK ser2056 induction in HCT116 spheroids (Homo sapiens, UniProt P78527); assay: Multicellular tumour spheroid + radiation, pDNA-PK inhibition, HCT116; type: cell-based; conditions: 20 Gy
T3 construct: endogenous in cells; host or cells: HCT116 multicellular tumour spheroids
Method in brief: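 EC50 (μM) is concentration halving radiation-induced pDNA-PK ser2056, scored by fluorescent immunostaining of cryosections 2 h after 20 Gy. HCT116 tumour spheroids (~0.5 mm, stirred, 20% O2/5% CO2, 37 °C) exposed to serial dilutions from 10 or 5 μM to 3.5 nM starting 1 h before irradiation.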

[5] = Hepatocyte stability assay, mouse hepatocytes; type: in vitro ADME; conditions: for hepatocyte CLint at 1 uM: male, CD-1, mouse, cryopreserved hepatocytes
Protocol: (§1) Cryopreserved mouse hepatocytes were obtained from a pool of 10 or more male CD-1 mice. Cryopreserved human hepatocytes were obtained from a pool of 10 or more donors of mixed gender. Final hepatocyte density was 0.7 million viable cells per mL and test compound concentration was 1 uM with a maximum of 0.01% DMSO. Cryopreserved hepatocytes were thawed, washed, and resuspended in Krebs-Heinslet buffer (pH 7.3). The reaction was initiated by adding the test compound into cell suspension and incubated for 0, […], 1, 1.5, and 2 h, respectively, at 37° C./5% CO2. The reaction was stopped by adding acetonitrile into the incubation mixture. Samples were then mixed, transferred completely to another 96-well plate, and centrifuged. Supernatants were used for HPLC-MS/MS analysis. […] Peak areas corresponding to the test compound were recorded.

[6] = Hepatocyte stability assay, human hepatocytes; type: in vitro ADME; conditions: both sexes, human, cryopreserved hepatocytes, pH 7.3; Example 11
Protocol: as §1

[7] = Example 7, spheroid, cell line HCT115 [sic], 20% O2, read-out: EC50 (pDNA-PK inhibition, immunohistochemical endpoint)
[8] = Example 9 Study 2, 20% O2, read-out: Spheroid Cell line: HCT116 Immunohistochemical endpoint pDNA-PK inhibition EC50
[9] = 0.1 mg/mL microsomes, 0.1 uM compound
[10] = pH 7.4, 0.1 mg/mL microsomes, 0.1 uM compound
[11] = Example 8, spheroid, read-out: Cell line: HCT116 Immunohistochemical endpoint pDNA-PK inhibition EC50

Row | SMILES | IC50 ([1]; Table 1) [nM] | EC50 [4, 7] [nM] | EC50 [4, 8] [nM] | Microsomal Stability (mouse) % rem. 60 min [2] | microsomal CLint at 0.1 uM [2, 9] [µL/min/mg] | IC50 (DNA-PK; Table 1) [nM] | further results
1 | Oc1cnc2cc(N3CCOCC3)nc(O[C@H]3CC[C@@H](Nc4ncccn4)CC3)c2c1 [LFA117, 7-Morpholino-5-[4-(pyrimidin-2-ylamino)cyclohexoxy]-1,6-naphthyridin-3-ol] |  |  |  |  |  |  | IC50 ([1]; Table 2): < 100 nM; Microsomal Stability (mouse) % rem. 60 min ([2]; Example 11): F (% remaining = 25-50%); microsomal CLint at 0.1 uM ([2]; Example 11): < 116 µL/min/mg; IC50 (DNA-PK; Table 2): < 0.5 nM; Microsomal Stability (human) % rem. 60 min ([3]; Example 11): H (% remaining = 75-100%); microsomal CLint at 0.1 uM ([3]; pH 7.4, Example 11): < 116 µL/min/mg
2 | COc1ccnc(C(=O)N[C@H]2CC[C@@H](Oc3nc(N4CCOCC4)cc4ncccc34)CC2)n1 [Compound 131, 4-methoxy-N-((1s,4s)-4-((7-morpholino-1,6-naphthyridin-5-yl)oxy)cyclohexyl)pyrimidine-2-carboxamide] | < 100 | 1000 to 10000 | 1000 to 10000 | E (% remaining = 0-25%) | > 116 | 0.5 to 1 | Microsomal Stability (human) % rem. 60 min [3]: E (% remaining = 0-25%); microsomal CLint at 0.1 uM [3, 10]: > 116 µL/min/mg
3 | O=C(N[C@H]1CC[C@@H](Oc2nc(N3CCOCC3)cc3ncc(O)cc23)CC1)c1ncccn1 [LFA115, N-[4-[(3-Hydroxy-7-morpholino-1,6-naphthyridin-5-yl)oxy]cyclohexyl]pyrimidine-2-carboxamide] |  |  |  |  |  |  | IC50 ([1]; Table 2): 100 to 1000 nM; Microsomal Stability (mouse) % rem. 60 min ([2]; Example 11): G (% remaining = 50-75%); microsomal CLint at 0.1 uM ([2]; Example 11): < 116 µL/min/mg; IC50 (DNA-PK; Table 2): 0.5 to 1 nM; Microsomal Stability (human) % rem. 60 min ([3]; Example 11): G (% remaining = 50-75%); microsomal CLint at 0.1 uM ([3]; pH 7.4, Example 11): < 116 µL/min/mg
4 | CS(=O)(=O)Nc1cnc2cc(N3CCOCC3)nc(O[C@H]3CC[C@@H](n4ccnc4)CC3)c2c1 [LFA017, N-[5-(4-Imidazol-1-ylcyclohexoxy)-7-morpholino-1,6-naphthyridin-3-yl]methanesulfonamide] |  |  |  |  |  |  | hepatocyte CLint at 1 uM ([5]; pH 7.3, Example 11): > 8.2 µL/min/1e6 cells; IC50 (DNA-PK; Table 2): < 0.5 nM; hepatocyte CLint at 1 uM [6]: < 8.2 µL/min/1e6 cells
5 | O=C(N[C@H]1CC[C@@H](Oc2nc(N3CCOCC3)cc3ncccc23)CC1)c1cccnn1 [Compound 120, N-((1s,4s)-4-((7-morpholino-1,6-naphthyridin-5-yl)oxy)cyclohexyl)pyridazine-3-carboxamide] | 100 to 1000 | 1000 to 10000 | 1000 to 10000 | H (% remaining = 75-100%) | < 116 | 0.5 to 1 | Microsomal Stability (human) % rem. 60 min [3]: F (% remaining = 25-50%); microsomal CLint at 0.1 uM [3, 10]: > 116 µL/min/mg
6 | O=C(N[C@H]1CC[C@@H](Oc2nc(N3CCOCC3)cc3ncccc23)CC1)c1ccccn1 [Compound 114, N-((1s,4s)-4-((7-morpholino-1,6-naphthyridin-5-yl)oxy)cyclohexyl)picolinamide] | 100 to 1000 | 1000 to 10000 | 1000 to 10000 | E (% remaining = 0-25%) | > 116 | 0.5 to 1 | 
7 | O=C(N[C@H]1CC[C@@H](Oc2nc(N3CCOCC3)cc3ncccc23)CC1)c1ccc[nH]1 [Compound 145] | < 100 | 10 to 500 | 10 to 500 | E (% remaining = 0-25%) | > 116 | 0.5 to 1 | 
8 | O=C(N[C@H]1CC[C@@H](Oc2nc(N3CCOCC3)cc3ncccc23)CC1)C1(O)CC1 [Compound 109, 1-Hydroxy-N-((1s,4s)-4-((7-morpholino-1,6-naphthyridin-5-yl)oxy)cyclohexyl)cyclopropane-1-carboxamide] | 100 to 1000 | 10000 to 100000 | 10000 to 100000 | E (% remaining = 0-25%) | > 116 | 1 to 10 | EC50 [4, 11]: 10000 to 100000 nM
9 | O=C(N[C@H]1CC[C@@H](Oc2nc(N3CCOCC3)cc3ncccc23)CC1)c1cncs1 [Compound 137, N-((1s,4s)-4-((7-morpholino-1,6-naphthyridin-5-yl)oxy)cyclohexyl)thiazole-5-carboxamide] | 100 to 1000 | 500 to 1000 | 500 to 1000 | G (% remaining = 50-75%) | < 116 | < 0.5 | Microsomal Stability (human) % rem. 60 min [3]: F (% remaining = 25-50%); microsomal CLint at 0.1 uM [3, 10]: > 116 µL/min/mg
10 | O=C(N[C@H]1CC[C@@H](Oc2nc(N3CCOCC3)cc3ncccc23)CC1)c1cc[nH]n1 [Compound 138, N-((1s,4s)-4-((7-morpholino-1,6-naphthyridin-5-yl)oxy)cyclohexyl)-1H-pyrazole-3-carboxamide] | 100 to 1000 | 500 to 1000 | 500 to 1000 | E (% remaining = 0-25%) | > 116 | 0.5 to 1 | 
11 | O=C(N[C@H]1CC[C@@H](Oc2nc(N3CCOCC3)cc3ncccc23)CC1)c1ncc(Cl)cn1 [Compound 124, 5-chloro-N-((1s,4s)-4-((7-morpholino-1,6-naphthyridin-5-yl)oxy)cyclohexyl)pyrimidine-2-carboxamide] | 100 to 1000 | 1000 to 10000 | 1000 to 10000 | F (% remaining = 25-50%) | > 116 | 0.5 to 1 | 
12 | CN(c1cnc2cc(N3CCOCC3)nc(O[C@H]3CC[C@@H](Nc4ncccn4)CC3)c2c1)S(C)(=O)=O [Compound 197, N-methyl-N-(7-morpholino-5-(((1s,4s)-4-(pyrimidin-2-ylamino)cyclohexyl)oxy)-1,6-naphthyridin-3-yl)methanesulfonamide] | 100 to 1000 |  |  |  |  | 1 to 10 | Hepatocyte Stability (mouse) % rem. 120 min ([5]; 120 min): G (% remaining = 50-75%); hepatocyte CLint at 1 uM ([5]; pH 7.3, 0.7 million cells per mL, 1 uM compound): > 8.2 µL/min/1e6 cells
13 | O=C(N[C@H]1CC[C@@H](Oc2nc(N3CCOCC3)cc3ncccc23)CC1)C1CC1 [Compound 108, N-((1s,4s)-4-((7-Morpholino-1,6-naphthyridin-5-yl)oxy)cyclohexyl)cyclopropanecarboxamide] | 100 to 1000 | 1000 to 10000 | 1000 to 10000 | E (% remaining = 0-25%) | > 116 | 1 to 10 | EC50 [4, 11]: 1000 to 10000 nM
14 | CS(=O)(=O)Nc1cnc2cc(N3CCOCC3)nc(O[C@H]3CC[C@@H](NC(=O)c4ncccn4)CC3)c2c1 [LFA015, N-[4-[[3-(Methanesulfonamido)-7-morpholino-1,6-naphthyridin-5-yl]oxy]cyclohexyl]pyrimidine-2-carboxamide] |  |  |  |  |  |  | IC50 ([1]; Table 2): 1000 to 10000 nM; Microsomal Stability (mouse) % rem. 60 min ([2]; Example 11): H (% remaining = 75-100%); microsomal CLint at 0.1 uM ([2]; Example 11): < 116 µL/min/mg; IC50 (DNA-PK; Table 2): < 0.5 nM; Microsomal Stability (human) % rem. 60 min ([3]; Example 11): H (% remaining = 75-100%); microsomal CLint at 0.1 uM ([3]; pH 7.4, Example 11): < 116 µL/min/mg
15 | c1cnc2cc(N3CCOCC3)nc(O[C@H]3CC[C@@H](n4ncnn4)CC3)c2c1 [Compound 17m, 4-(5-(((1s,4s)-4-(2H-tetrazol-2-yl)cyclohexyl)oxy)-1,6-naphthyridin-7-yl)morpholine] | 100 to 1000 | 1000 to 10000 | 1000 to 10000 | E (% remaining = 0-25%) | > 116 | 1 to 10 | EC50 [4, 11]: 1000 to 10000 nM
16 | O=C(N[C@H]1CC[C@@H](Oc2nc(N3CCOCC3)cc3ncccc23)CC1)c1ccc(Cl)nc1 [Compound 116, 6-chloro-N-((1s,4s)-4-((7-morpholino-1,6-naphthyridin-5-yl)oxy)cyclohexyl)nicotinamide] | 100 to 1000 | 1000 to 10000 | 1000 to 10000 | F (% remaining = 25-50%) | > 116 | 0.5 to 1 | 
